{"source": "patent US11851411B2", "about": "“Herbicidal compounds” (SYNGENTA CROP PROTECTION AG, priority 2018, dated 2023)", "format_in_all_cases": "in vivo", "key": {"[1]": {"tested_on": "Echinochloa crus-galli (ECHCG)", "assay": "Glasshouse herbicide test, post-emergence", "conditions": "POST Application; 500 g/h; evaluated after 13 days", "method": "(§1) Seeds of a variety of test species are shown in standard soil in pots (Lolium perenne (LOLPE), Amaranthus retoflexus (AMARE), Abutilon theophrasti (ABUTH), Setaria faberi (SETFA), Echinochloa crus-galli (ECHCG), Ipomoea hederacea (IPOHE)). After cultivation for one day (pre-emergence) or after 8 days cultivation (post-emergence) under controlled conditions in a glasshouse (at 24/16° C., day/night; 14 hours light; 65% humidity), the plants are sprayed with an aqueous spray solution derived from the formulation of the technical active ingredient in acetone/water (50:50) solution containing 0.5% Tween 20 (polyoxyethelyene sorbitan monolaurate, CAS RN 9005-64-5). Compounds are applied at 500 g/h. The test plants are then grown in a glasshouse under controlled conditions in a glasshouse (at 24/16° C., day/night; 14 hours light; 65% humidity) and watered twice daily. After 13 days for pre and post-emergence, the test is evaluated for the percentage damage caused to the plant. The biological activities are shown in the following table on a five point scale (5=80-100%; 4=60-79%; 3=40-59%; 2=20-39%; 1=0-19%)."}, "[2]": {"tested_on": "Ipomoea hederacea (IPOHE)", "assay": "Glasshouse herbicide test, post-emergence", "conditions": "POST Application; 500 g/h; evaluated after 13 days", "method": "as §1"}, "[3]": {"tested_on": "Amaranthus retoflexus (AMARE)", "assay": "Glasshouse herbicide test, post-emergence", "conditions": "POST Application; 500 g/h; evaluated after 13 days", "method": "as §1"}, "Setaria faberi (SETFA) [4]": {"tested_on": "Setaria faberi (SETFA)", "assay": "Glasshouse herbicide test, post-emergence", "conditions": "POST Application; 500 g/h; evaluated after 13 days", "method": "as §1"}, "[5]": {"tested_on": "Abutilon theophrasti (ABUTH)", "assay": "Glasshouse herbicide test, post-emergence", "conditions": "POST Application; 500 g/h; evaluated after 13 days", "method": "as §1"}, "[6]": {"tested_on": "Echinochloa crus-galli (ECHCG)", "assay": "Glasshouse herbicide test, pre-emergence", "conditions": "PRE Application; 500 g/h; evaluated after 13 days", "method": "as §1"}, "[7]": {"tested_on": "Ipomoea hederacea (IPOHE)", "assay": "Glasshouse herbicide test, pre-emergence", "conditions": "PRE Application; 500 g/h; evaluated after 13 days", "method": "as §1"}, "[8]": {"tested_on": "Amaranthus retoflexus (AMARE)", "assay": "Glasshouse herbicide test, pre-emergence", "conditions": "PRE Application; 500 g/h; evaluated after 13 days", "method": "as §1"}, "Setaria faberi (SETFA) [9]": {"tested_on": "Setaria faberi (SETFA)", "assay": "Glasshouse herbicide test, pre-emergence", "conditions": "PRE Application; 500 g/h; evaluated after 13 days", "method": "as §1"}, "[10]": {"tested_on": "Abutilon theophrasti (ABUTH)", "assay": "Glasshouse herbicide test, pre-emergence", "conditions": "PRE Application; 500 g/h; evaluated after 13 days", "method": "as §1"}}}
{"smiles": "CON(C)c1c(C(F)(F)F)ccc(C(=O)Nc2nnnn2C)c1Cl", "note": "[Compound 1.037]", "values": [{"measurement": "percentage damage caused to the plant, five point scale, ECHCG", "setting": "[1]", "result": "5 (5=80-100%)"}, {"measurement": "percentage damage caused to the plant, five point scale, IPOHE", "setting": "[2]", "result": "5 (5=80-100%)"}, {"measurement": "percentage damage caused to the plant, five point scale, AMARE", "setting": "[3]", "result": "5 (5=80-100%)"}, {"measurement": "percentage damage caused to the plant, five point scale, SETFA", "setting": "Setaria faberi (SETFA) [4]", "result": "5 (5=80-100%)"}, {"measurement": "percentage damage caused to the plant, five point scale, ABUTH", "setting": "[5]", "result": "5 (5=80-100%)"}, {"measurement": "percentage damage caused to the plant, five point scale, ECHCG", "setting": "[6]", "result": "5 (5=80-100%)"}, {"measurement": "percentage damage caused to the plant, five point scale, IPOHE", "setting": "[7]", "result": "5 (5=80-100%)"}, {"measurement": "percentage damage caused to the plant, five point scale, AMARE", "setting": "[8]", "result": "5 (5=80-100%)"}, {"measurement": "percentage damage caused to the plant, five point scale, SETFA", "setting": "Setaria faberi (SETFA) [9]", "result": "5 (5=80-100%)"}, {"measurement": "percentage damage caused to the plant, five point scale, ABUTH", "setting": "[10]", "result": "5 (5=80-100%)"}]}
{"smiles": "CCn1nnnc1NC(=O)c1ccc(S(C)(=O)=O)c(N(C)OC)c1Cl", "note": "[Compound 1.044]", "values": [{"measurement": "percentage damage caused to the plant, five point scale, ECHCG", "setting": "[1]", "result": "5 (5=80-100%)"}, {"measurement": "percentage damage caused to the plant, five point scale, IPOHE", "setting": "[2]", "result": "5 (5=80-100%)"}, {"measurement": "percentage damage caused to the plant, five point scale, AMARE", "setting": "[3]", "result": "5 (5=80-100%)"}, {"measurement": "percentage damage caused to the plant, five point scale, SETFA", "setting": "Setaria faberi (SETFA) [4]", "result": "5 (5=80-100%)"}, {"measurement": "percentage damage caused to the plant, five point scale, ABUTH", "setting": "[5]", "result": "5 (5=80-100%)"}, {"measurement": "percentage damage caused to the plant, five point scale, ECHCG", "setting": "[6]", "result": "5 (5=80-100%)"}, {"measurement": "percentage damage caused to the plant, five point scale, IPOHE", "setting": "[7]", "result": "5 (5=80-100%)"}, {"measurement": "percentage damage caused to the plant, five point scale, AMARE", "setting": "[8]", "result": "5 (5=80-100%)"}, {"measurement": "percentage damage caused to the plant, five point scale, SETFA", "setting": "Setaria faberi (SETFA) [9]", "result": "5 (5=80-100%)"}, {"measurement": "percentage damage caused to the plant, five point scale, ABUTH", "setting": "[10]", "result": "5 (5=80-100%)"}]}
{"smiles": "CCCn1nnnc1NC(=O)c1ccc(S(C)(=O)=O)c(N(C)OC)c1Cl", "note": "[Compound 1.045]", "values": [{"measurement": "percentage damage caused to the plant, five point scale, ECHCG", "setting": "[1]", "result": "5 (5=80-100%)"}, {"measurement": "percentage damage caused to the plant, five point scale, IPOHE", "setting": "[2]", "result": "5 (5=80-100%)"}, {"measurement": "percentage damage caused to the plant, five point scale, AMARE", "setting": "[3]", "result": "5 (5=80-100%)"}, {"measurement": "percentage damage caused to the plant, five point scale, SETFA", "setting": "Setaria faberi (SETFA) [4]", "result": "5 (5=80-100%)"}, {"measurement": "percentage damage caused to the plant, five point scale, ABUTH", "setting": "[5]", "result": "5 (5=80-100%)"}, {"measurement": "percentage damage caused to the plant, five point scale, ECHCG", "setting": "[6]", "result": "5 (5=80-100%)"}, {"measurement": "percentage damage caused to the plant, five point scale, IPOHE", "setting": "[7]", "result": "5 (5=80-100%)"}, {"measurement": "percentage damage caused to the plant, five point scale, AMARE", "setting": "[8]", "result": "5 (5=80-100%)"}, {"measurement": "percentage damage caused to the plant, five point scale, SETFA", "setting": "Setaria faberi (SETFA) [9]", "result": "5 (5=80-100%)"}, {"measurement": "percentage damage caused to the plant, five point scale, ABUTH", "setting": "[10]", "result": "5 (5=80-100%)"}]}
{"smiles": "CON(C(=O)C(C)C)c1c(C(F)(F)F)ccc(C(=O)Nc2nnnn2C)c1Cl", "note": "[Compound 1.049]", "values": [{"measurement": "percentage damage caused to the plant, five point scale, ECHCG", "setting": "[1]", "result": "5 (5=80-100%)"}, {"measurement": "percentage damage caused to the plant, five point scale, IPOHE", "setting": "[2]", "result": "5 (5=80-100%)"}, {"measurement": "percentage damage caused to the plant, five point scale, AMARE", "setting": "[3]", "result": "5 (5=80-100%)"}, {"measurement": "percentage damage caused to the plant, five point scale, SETFA", "setting": "Setaria faberi (SETFA) [4]", "result": "5 (5=80-100%)"}, {"measurement": "percentage damage caused to the plant, five point scale, ABUTH", "setting": "[5]", "result": "5 (5=80-100%)"}, {"measurement": "percentage damage caused to the plant, five point scale, ECHCG", "setting": "[6]", "result": "5 (5=80-100%)"}, {"measurement": "percentage damage caused to the plant, five point scale, IPOHE", "setting": "[7]", "result": "5 (5=80-100%)"}, {"measurement": "percentage damage caused to the plant, five point scale, AMARE", "setting": "[8]", "result": "5 (5=80-100%)"}, {"measurement": "percentage damage caused to the plant, five point scale, SETFA", "setting": "Setaria faberi (SETFA) [9]", "result": "5 (5=80-100%)"}, {"measurement": "percentage damage caused to the plant, five point scale, ABUTH", "setting": "[10]", "result": "5 (5=80-100%)"}]}
{"smiles": "CCC(=O)N(OC)c1c(C(F)(F)F)ccc(C(=O)Nc2nnnn2C)c1Cl", "note": "[Compound 1.050]", "values": [{"measurement": "percentage damage caused to the plant, five point scale, ECHCG", "setting": "[1]", "result": "5 (5=80-100%)"}, {"measurement": "percentage damage caused to the plant, five point scale, IPOHE", "setting": "[2]", "result": "5 (5=80-100%)"}, {"measurement": "percentage damage caused to the plant, five point scale, AMARE", "setting": "[3]", "result": "5 (5=80-100%)"}, {"measurement": "percentage damage caused to the plant, five point scale, SETFA", "setting": "Setaria faberi (SETFA) [4]", "result": "5 (5=80-100%)"}, {"measurement": "percentage damage caused to the plant, five point scale, ABUTH", "setting": "[5]", "result": "5 (5=80-100%)"}, {"measurement": "percentage damage caused to the plant, five point scale, ECHCG", "setting": "[6]", "result": "5 (5=80-100%)"}, {"measurement": "percentage damage caused to the plant, five point scale, IPOHE", "setting": "[7]", "result": "4 (4=60-79%)"}, {"measurement": "percentage damage caused to the plant, five point scale, AMARE", "setting": "[8]", "result": "5 (5=80-100%)"}, {"measurement": "percentage damage caused to the plant, five point scale, SETFA", "setting": "Setaria faberi (SETFA) [9]", "result": "5 (5=80-100%)"}, {"measurement": "percentage damage caused to the plant, five point scale, ABUTH", "setting": "[10]", "result": "5 (5=80-100%)"}]}
{"smiles": "CCCS(=O)(=O)c1ccc(C(=O)Nc2nnnn2C)c(Cl)c1N(C)OC", "note": "[Compound 1.054]", "values": [{"measurement": "percentage damage caused to the plant, five point scale, ECHCG", "setting": "[1]", "result": "5 (5=80-100%)"}, {"measurement": "percentage damage caused to the plant, five point scale, IPOHE", "setting": "[2]", "result": "5 (5=80-100%)"}, {"measurement": "percentage damage caused to the plant, five point scale, AMARE", "setting": "[3]", "result": "5 (5=80-100%)"}, {"measurement": "percentage damage caused to the plant, five point scale, SETFA", "setting": "Setaria faberi (SETFA) [4]", "result": "5 (5=80-100%)"}, {"measurement": "percentage damage caused to the plant, five point scale, ABUTH", "setting": "[5]", "result": "5 (5=80-100%)"}, {"measurement": "percentage damage caused to the plant, five point scale, ECHCG", "setting": "[6]", "result": "5 (5=80-100%)"}, {"measurement": "percentage damage caused to the plant, five point scale, IPOHE", "setting": "[7]", "result": "5 (5=80-100%)"}, {"measurement": "percentage damage caused to the plant, five point scale, AMARE", "setting": "[8]", "result": "5 (5=80-100%)"}, {"measurement": "percentage damage caused to the plant, five point scale, SETFA", "setting": "Setaria faberi (SETFA) [9]", "result": "5 (5=80-100%)"}, {"measurement": "percentage damage caused to the plant, five point scale, ABUTH", "setting": "[10]", "result": "5 (5=80-100%)"}]}
